Laboratory results taken from patent US6552080B1, “Fungicidal compounds having a fluorovinyl-or fluoropropenyl-oxyphenyloxime moiety and process for the preparation thereof” (Korea Research Institute of Chemical Technology, priority 1999, dated 2003).
Read-outs that look alike come from different tables or passages of the source.

Columns and labels:
Erysiphae graminis = experiment: Fungicidal activity against Barley Powdery Mildew (BPM) disease; type: in vivo; settings: for BPM (Fungicidal Activities, C.V.): Barley Powdery Mildew
Puccinia recondita = experiment: Fungicidal activity against Wheat Leaf Rust (WLR) disease; type: in vivo; settings: for WLR (Fungicidal Activities, C.V.): Wheat Leaf Rust
Rhizoctonia solani AG-1 = experiment: Fungicidal activity against Rice Sheath Blight (RSB) disease
[1] = test system: Pyricularia oryzae Carvara KA301; type: in vivo; settings: for RCV (Fungicidal Activities, C.V.): Rice Blast
Botrytis cinerae = experiment: Fungicidal activity against Cucumber Gray Mold Rot (CGM) disease; type: in vivo; settings: for Fungicidal Activities CGM (C.V.): 50 ppm
Phytophthora infestans = type: in vivo

SMILES	Fungicidal Activities BPM (C.V.) (Erysiphae graminis; 2 ppm) [%]	Fungicidal Activities WLR (C.V.) (Puccinia recondita; 2 ppm) [%]	Fungicidal Activities RCV (C.V.) ([1]; 2 ppm) [%]	Fungicidal Activities BPM (C.V.) (Erysiphae graminis; 50 ppm) [%]	Fungicidal Activities WLR (C.V.) (Puccinia recondita; 50 ppm) [%]	Fungicidal Activities RSB (C.V.) (Rhizoctonia solani AG-1; 2 ppm) [%]	Fungicidal Activities RSB (C.V.) (Rhizoctonia solani AG-1; 50 ppm) [%]	Fungicidal Activities RCV (C.V.) ([1]; 50 ppm) [%]	Fungicidal Activities CGM (C.V.) (Botrytis cinerae) [%]	Fungicidal Activities TLB (C.V.) (Phytophthora infestans; 50 ppm) [%]	Fungicidal Activities TLB (C.V.) (Phytophthora infestans; 2 ppm) [%]	other results
COC=C(C(=O)OC)c1ccccc1CON=C(C)c1cccc(OC(F)=C(c2ccc(F)cc2)C(F)(F)F)c1 [Compound 160]	99	99	86	–	–	–	–	–	–	–	–	BPM (Fungicidal Activities, C.V.) (Erysiphae graminis; concentration 10 ppm): 100%; BPM (Fungicidal Activities, C.V.) (Erysiphae graminis; concentration 50 ppm): 100%; WLR (Fungicidal Activities, C.V.) (Puccinia recondita; concentration 10 ppm): 100%; WLR (Fungicidal Activities, C.V.) (Puccinia recondita; concentration 50 ppm): 100%; RSB (Fungicidal Activities, C.V.) (Rhizoctonia solani AG-1; Rice Sheath Blight, concentration 50 ppm): 70%; RCV (Fungicidal Activities, C.V.) ([1]; concentration 10 ppm): 100%; RCV (Fungicidal Activities, C.V.) ([1]; concentration 50 ppm): 100%; CGM (Fungicidal Activities, C.V.) (Botrytis cinerae; Cucumber Gray Mold Rot, concentration 50 ppm): 36%; TLB (Fungicidal Activities, C.V.) (Phytophthora infestans; Tomato Late Blight, concentration 50 ppm): 92%
COC=C(C(=O)OC)c1ccccc1CON=C(C)c1cccc(OC(F)=C(c2ccc(Cl)cc2)C(F)(F)F)c1 [Compound 163]	94	86	58	100	100	40	92	90	51	12	–	Fungicidal Activities BPM (C.V.) (Erysiphae graminis; 10 ppm): 100%; Fungicidal Activities WLR (C.V.) (Puccinia recondita; 10 ppm): 98%; Fungicidal Activities RSB (C.V.) (Rhizoctonia solani AG-1; 10 ppm): 40%; Fungicidal Activities RCV (C.V.) ([1]; 10 ppm): 86%
COC=C(C(=O)OC)c1ccccc1CON=C(C)c1cccc(OC(F)=C(c2cc(Cl)cc(Cl)c2)C(F)(F)F)c1 [Compound 164]	71	60	–	100	96	–	20	41	36	0	–	Fungicidal Activities BPM (C.V.) (Erysiphae graminis; 10 ppm): 99%; Fungicidal Activities WLR (C.V.) (Puccinia recondita; 10 ppm): 95%
COC=C(C(=O)OC)c1ccccc1CON=C(C)c1cccc(OC(F)=C(c2ccc(Br)cc2)C(F)(F)F)c1 [Compound 165]	71	86	–	100	100	–	45	80	68	6	–	Fungicidal Activities BPM (C.V.) (Erysiphae graminis; 10 ppm): 99%; Fungicidal Activities WLR (C.V.) (Puccinia recondita; 10 ppm): 96%
CON=C(C(=O)OC)c1ccccc1CON=C(C)c1cccc(OC(F)=C(c2ccccc2)C(F)(F)F)c1 [Compound 173]	99	99	93	100	100	30	100	97	25	20	–	–
CON=C(C(=O)OC)c1ccccc1CON=C(C)c1cccc(OC(F)=C(c2cccc(C)c2)C(F)(F)F)c1 [Compound 174]	99	90	86	100	100	25	60	96	0	0	–	–
CON=C(C(=O)OC)c1ccccc1CON=C(C)c1cccc(OC(F)=C(c2ccc(C)cc2)C(F)(F)F)c1 [Compound 175]	83	86	76	100	100	10	65	96	12	0	–	–
CON=C(C(=O)OC)c1ccccc1CON=C(C)c1cccc(OC(F)=C(c2ccc(C)c(C)c2)C(F)(F)F)c1 [Compound 176]	80	60	83	100	100	20	60	86	12	70	–	–
CON=C(C(=O)OC)c1ccccc1CON=C(C)c1cccc(OC(F)=C(c2cccc(OC)c2)C(F)(F)F)c1 [Compound 180]	98	97	86	100	100	25	60	100	56	56	–	–
CON=C(C(=O)OC)c1ccccc1CON=C(C)c1cccc(OC(F)=C(c2ccc(OC)cc2)C(F)(F)F)c1 [Compound 181]	83	83	98	100	99	35	45	95	77	30	68	–
CON=C(C(=O)OC)c1ccccc1CON=C(C)c1cccc(OC(F)=C(c2cccc(F)c2)C(F)(F)F)c1 [Compound 182]	96	95	95	100	100	30	50	95	77	40	62	–
CON=C(C(=O)OC)c1ccccc1CON=C(C)c1cccc(OC(F)=C(c2ccc(F)cc2)C(F)(F)F)c1 [Compound 183]	100	99	99	100	100	20	100	100	56	50	12	–
CON=C(C(=O)OC)c1ccccc1CON=C(C)c1cccc(OC(F)=C(c2cccc(Cl)c2)C(F)(F)F)c1 [Compound 184]	99	98	90	100	99	20	85	96	0	50	0	–
CON=C(C(=O)OC)c1ccccc1CON=C(C)c1cccc(OC(F)=C(c2ccc(Cl)cc2)C(F)(F)F)c1 [Compound 185]	98	95	73	100	100	25	75	96	0	50	25	–
CON=C(C(=O)OC)c1ccccc1CON=C(C)c1cccc(OC(F)=C(c2cc(Cl)cc(Cl)c2)C(F)(F)F)c1 [Compound 186]	86	66	73	100	99	15	50	83	25	0	0	–
CON=C(C(=O)OC)c1ccccc1CON=C(C)c1cccc(OC(F)=C(c2ccc(Br)cc2)C(F)(F)F)c1 [Compound 187]	97	95	97	98	100	20	85	83	0	0	25	–
CON=C(C(=O)OC)c1ccccc1CON=C(C)c1cccc(OC(F)=C(c2cccc(C(F)(F)F)c2)C(F)(F)F)c1 [Compound 188]	91	66	76	100	95	0	55	71	0	40	0	–
